From PMC7359870 (Journal of the American Chemical Society, 2020)
“Also recorded” adds a separate entry of the source. Starred links: 1 amine or outer side, 2 acyl side, 3 side chain; linkers in the order of their positions; H or OH if unused. Non-standard residues stand in square brackets, D forms with d. Residues, ends and D or L forms follow the SMILES beside them. *: point of attachment. X1 = CC(C)C[C@H](NC(=O)N(Cc1ccccc1)C[C@@H](O)[C@H](Cc1ccccc1)N*)C(=O)N[C@H](C(N)=O)C(C)C; X2 = CC(C)[C@H](NC(=O)[C@H](C)NC(=O)N(Cc1ccccc1)C[C@@H](O)[C@H](Cc1ccccc1)N*)C(N)=O; NH(CH2)8CO = O=C(CCCCCCCCN[*:1])[*:2]; Boc = CC(C)(C)OC(=O)*; Aib = CC(C)(N)C(=O)O; Ava = NCCCCC(=O)O

Experiments:
[1] = target: purified γ-secretase (Homo sapiens, UniProt P49768); assay: Purified enzyme assay: inhibition of γ-secretase; format: biochemical
[2] = target: T1, γ-secretase (Homo sapiens, UniProt P49768); assay: Enzyme inhibition kinetics; format: biochemical
[3] = target: T1, γ-secretase; assay: Cross-competition kinetic experiment between two inhibitors; format: biochemical; conditions: for cross-competition with HPI 2 for binding: second inhibitor HPI 2 (docking site); for cross-competition with TSA 17 for binding: second inhibitor TSA 17 (active site)
[4] = target: presenilin-1 (PS1) N-terminal fragment (NTF) of γ-secretase (Homo sapiens, UniProt P49768); conditions: solubilized lysates from γ-secretase-expressing human embryonic kidney 293 cells

Compound | type of inhibition (enzyme inhibition kinetics) [2] | labelling of PS1 NTF by active-site-directed photoprobe TSA-Bpa-Bt [4] | labelling of PS1 NTF by docking-site-directed photoprobe HPI-Bpa-Bt [4] | other results
CC[C@H](C)[C@H](NC(=O)[C@@H](NC(=O)[C@@H](NC(=O)C(C)(C)NC(=O)CNC(=O)[C@@H](NC(=O)OC(C)(C)C)C(C)C)C(C)C)C(C)C)C(=O)NC(C)(C)C(=O)N[C@@H](Cc1ccccc1)C(=O)N[C@H](C(=O)NC(C)(C)C(=O)NCCCCC(=O)N[C@H](C(=O)N[C@@H](Cc1ccccc1)[C@H](O)CN(Cc1ccccc1)C(=O)N[C@@H](CC(C)C)C(=O)N[C@H](C(N)=O)C(C)C)C(C)C)C(C)C [Compound 5, Boc-Val-Gly-Aib-Val-Val-Ile-Aib-Phe-Val-Aib-NH(CH2)4CO-Val-Phe-ψ-Phe-Leu-Val-NH2] (Boc-VG[Aib]VVI[Aib]FV[Aib][Ava]V-X1) |  |  |  | potency compared to TSA 1 or HPI 2 (fold increase) ([1]; relative to IC50 of TSA 1 or HPI 2): 4-to-6 fold
CC[C@H](C)[C@H](NC(=O)[C@@H](NC(=O)[C@@H](NC(=O)C(C)(C)NC(=O)CNC(=O)[C@@H](NC(=O)OC(C)(C)C)C(C)C)C(C)C)C(C)C)C(=O)NC(C)(C)C(=O)N[C@@H](Cc1ccccc1)C(=O)N[C@H](C(=O)NC(C)(C)C(=O)NCCCCCCCCC(=O)N[C@H](C(=O)N[C@@H](Cc1ccccc1)[C@H](O)CN(Cc1ccccc1)C(=O)N[C@@H](CC(C)C)C(=O)N[C@H](C(N)=O)C(C)C)C(C)C)C(C)C [Compound 6, Boc-Val-Gly-Aib-Val-Val-Ile-Aib-Phe-Val-Aib-NH(CH2)8CO-Val-Phe-ψ-Phe-Leu-Val-NH2] (Boc-VG[Aib]VVI[Aib]FV[Aib][NH(CH2)8CO]V-X1) | noncompetitive inhibition | Decreased photolabelling; also recorded: decreased labelling | Decreased photolabelling; also recorded: decreased labelling | cross-competition with HPI 2 for binding [3]: competed; cross-competition with HPI 2 for binding ([3]; listed as HPI-TSA 6): competes; cross-competition with TSA 17 for binding [3]: competed; cross-competition with TSA 17 for binding ([3]; listed as HPI-TSA 6): competes
CC[C@H](C)[C@H](NC(=O)[C@H](NC(=O)[C@H](NC(=O)C(C)(C)NC(=O)CNC(=O)[C@@H](NC(=O)OC(C)(C)C)C(C)C)C(C)C)C(C)C)C(=O)NC(C)(C)C(=O)N[C@@H](Cc1ccccc1)C(=O)N[C@H](C(=O)NC(C)(C)C(=O)NCCCCCCCCC(=O)N[C@H](C(=O)N[C@@H](Cc1ccccc1)[C@H](O)CN(Cc1ccccc1)C(=O)N[C@@H](CC(C)C)C(=O)N[C@H](C(N)=O)C(C)C)C(C)C)C(C)C [Compound 9, Boc-Val-Gly-Aib-^DVal-^D Val-Ile-Aib-Phe-Val-Aib-NH(CH2)8CO-Val-Phe-ψ-Phe-Leu-Val-NH2] (Boc-VG[Aib][dV][dV]I[Aib]FV[Aib][NH(CH2)8CO]V-X1) |  |  |  | reduction of inhibitory potency relative to 6 ([1]; relative to HPI-TSA 6): decreased nearly eight-fold
CC[C@H](C)[C@H](NC(=O)[C@@H](NC(=O)[C@@H](NC(=O)C(C)(C)NC(=O)CNC(=O)[C@@H](NC(=O)OC(C)(C)C)C(C)C)C(C)C)C(C)C)C(=O)NC(C)(C)C(=O)N[C@@H](Cc1ccccc1)C(=O)N[C@H](C(=O)NC(C)(C)C(=O)NCCCCCCCCC(=O)N[C@H](C(=O)N[C@@H](Cc1ccccc1)[C@H](O)CN(Cc1ccccc1)C(=O)N[C@@H](C)C(=O)N[C@H](C(N)=O)C(C)C)C(C)C)C(C)C [Compound 16] (Boc-VG[Aib]VVI[Aib]FV[Aib][NH(CH2)8CO]V-X2; N-terminus and C-terminus assumed) | noncompetitive inhibition | Decreased photolabelling; also recorded: decreased labelling | Decreased photolabelling; also recorded: decreased labelling | 
